The source of these data is US8796302B2 (priority 2004, dated 2014).

Structures are written as SMILES.

For assay [1], the system named is TH-IR (dopaminergic) neurons in mesencephalic neuron-glia cultures. Briefly: TH-IR neuron count and morphology in LPS-treated neuron-glia cultures. It is filed as cell-based, rat. The settings on record: for dendrite network (immunocytochemical analysis): LPS; for attenuation of LPS-induced reduction in the number of TH-IR neurons: 30 min pretreatment.
The subject of assay [2] is dopaminergic neurons in rat primary mesencephalic neuron-glia cultures. The experiment in a line: DA uptake / TH-IR count in neuron-glia cultures without toxin (spontaneous DA neuronal death, neurotrophic effect). It counts as cell-based. How it is done: In Example 23, [^3H]DA uptake assay and immunohistochemical analysis for TH-IR neurons were used to assess the viability of DA neurons in rat primary mesencephalic neuron-glia cultures in which approximately 1% of the neurons are dopaminergic. [^3H]DA uptake assays were performed as described in Example 1.
Rat primary mesencephalic neuron-glia cultures were prepared from the ventral mesencephalic tissues of embryonic day 13-14 Fisher 344 rats. Dissociated cells were seeded at a density of 5×10^5/well to poly-D-lysine-precoated 24-well plates. Cells were maintained at 37° C. in a humidified atmosphere of 5% CO2 and 95% air, in minimal essential medium containing 10% fetal bovine serum (FBS), 10% horse serum, 1 gm/l glucose, 2 mM L-glutamine, 1 mM sodium pyruvate, 100 μM non-essential amino acids, 50 U/ml penicillin, and 50 μg/ml streptomycin. Unless otherwise indicated, seven-day-old cultures were used for treatment.
Seven days after seeding, each well was treated with indicated concentration of VPA or its vehicle. Seven days after treatment, the viability of dopaminergic neurons was assessed by [^3H]DA uptake assays. Quantified results are expressed as mean±SEM of percentage of vehicle-treated cultures from three experiments performed in duplicate. *, p<0.05 compared with the corresponding vehicle-treated control cultures.
Next, the rat primary mesencephalic neuron-glia cultures were treated with 0.6 mM VPA for various times to determine the treatment time-dependency. Rat primary mesencephalic neuron-glia cultures in a 24-well plate were treated with 0.6 mM VPA or its vehicle for indicated time 7 days after seeding. The viability of dopaminergic neurons was assessed by [^3H]DA uptake assays, shown in FIG. 37 or counting of TH-IR neurons, shown in FIG. 38. Quantified results are expressed as mean±SEM of percentage of vehicle-treated control cultures from three experiments performed in duplicate. *, p<0.05 compared with the corresponding vehicle-treated control cultures. […] VPA time-dependently induces survival-promoting effects against spontaneous DA neuronal death in rat primary mesencephalic neuron-glia cultures.
Rat primary mesencephalic neuron-glia cultures seeded in a 24-well culture plate at density of 5×10^5 per well were treated with indicated concentrations of sodium butyrate or its vehicle 7 days after seeding. The viability of dopaminergic neurons was assessed by DA uptake assays 7 days after sodium butyrate addition.
Mesencephalic neuron-glia cultures, prepared as described above, were pretreated with vehicle or 3-HM (1-5 μM) before the treatment of LPS (10 ng/ml). Seven days later, the degeneration of dopaminergic neurons was determined by the functional assay of [^3H]DA uptake and by the morphometric measurement of dopaminergic neurons following immunostaining with an anti-TH antibody. [^3H]DA and immunostaining are performed as described above.

Assay [3] concerns dopaminergic neurons in mesencephalic neuron-enriched cultures. The experiment in a line: [3H]DA uptake in neuron-enriched cultures (direct, conditioned media, reconstituted). It counts as cell-based, rat. The settings on record: for DA uptake with 3-HM-treated astroglia conditioned media: 24 h conditioning, % of non-conditioned control, vehicle conditioned 122%. How it is done:
Mixed-glia cultures were first prepared from brains of 1-day-old Fisher 344 rat pups, as described previously (Liu, et al. 2001). Mechanically dissociated brain cells (5×10^7) were seeded onto 150 cm^2 culture flasks in Dulbecco's modified Eagle's medium containing 10% heat-inactivated FBS, 2 mM L-glutamine, 1 mM sodium pyruvate, 100 μM non-essential amino acids, 50 U/ml penicillin, and 50 μg/ml streptomycin. The cultures were maintained at 37° C. in a humidified atmosphere of 5% CO2 and 95% air, and medium was replenished 4 days after the initial seeding. Upon reaching confluence (usually 12-14 days later), microglia were detached from astroglia by shaking the flasks for 5 hours at 180 rpm. Astroglia were then detached with trypsin-EDTA and seeded in the same culture medium. After five or more consecutive passages, cells were seeded onto 24-well plates (10^5/well) for experiments. Immunocytochemical staining of the astroglia enriched cultures with either anti-GFAP or anti-OX-42 antibody indicated astroglial purity of greater than 98% and less than 2% of microglia contamination.
Conditioned medium derived from rat primary astroglial cultures treated with vehicle (ACM) or 0.6 mM VPA (ACM-VPA) were harvested after 12, 24 and 48 hours of incubation. Midbrain neuron-enriched cultures seeded in 24-well plates at a density of 5×10^5 cells/well were treated with vehicle, VPA, ACM or ACM-VPA for 7 days. Neurotrophic effect was quantified by [^3H]DA uptake assay.
Rat mesencephalic neuron-enriched cultures are prepared from dissociated ventral mesencephalic cells from embryonic day 13-14 Fisher 344 rats were seeded first at a density of 5×10^5/well to poly-D-lysine-precoated 24-well culture plates. […] Three days later, the culture medium was replaced with the maintenance medium. Routinely, the seven-day-old neuron-enriched cultures were used for treatment. […] Of the Neu-N immunoractive neurons, 2.7-3.9% was TH-IR neurons.
To explore whether astroglial cells are also the main target of sodium butyrate-induced neurotrophic effect, we prepared media conditioned by incubation of astroglial cultures in the absence or presence 0.6 mM sodium butyrate. Conditioned medium derived from rat primary astroglial cultures treated with vehicle (ACM) or 0.6 mM sodium butyrate (ACM-Sodium butyrate) were harvested after 48 hours of incubation. Midbrain neuron-enriched cultures seeded in 24-well plates at a density of 5×10^5 cells/well were treated with vehicle, sodium butyrate, ACM or ACM-Sodium butyrate for 7 days. Seven days after treatment, neurotrophic effect for dopaminergic neurons was assessed by [^3H]DA uptake assays.
Various concentrations of 3-HM (0.1-5 μM) or vehicle were added to the following different cell cultures: neuron-enriched cultures (A); reconstituted cultures by adding 10% and 20% (5×10^4/well and 1×10^5/well) of microglia to the neuron-enriched cultures (B); reconstituted cultures by adding 40% and 50% (2×10^5/well and 2.5×10^5/well) of astroglia to the neuron-enriched cultures (C). Cultures are prepared as described in Example 25. The [^3H]DA uptake measurements were performed […] after treatment. Results were expressed as a percentage of the vehicle-treated control cultures and were the mean±SE from five (A) and four (B,C) independent experiments in triplicate. *P<0.05 and **P, 0.001 compared with the vehicle-treated control cultures. #P<0.05 compared with the augmented cultures with 40% astroglia. N, neuron-enriched cultures; N+10% (20%) MG: 10% (20%) of microglia were added back to the neuron-enriched cultures; N+40% (50%) AS: 40% (50%) of astroglia were added back to the neuron-enriched cultures.
To confirm the possible role of astroglia in the neurotrophic effect of 3-HM, conditioned media from astroglia-enriched cultures (prepared as described above) treated with either 3-HM (1-5 μM) or vehicle for 24 hours were prepared. […]

Assay [4] concerns dopaminergic neurons in rat primary mesencephalic neuron-glia cultures. The experiment in a line: [3H]DA uptake in LPS-treated mesencephalic neuron-glia cultures. It is filed as cell-based. The following applies: for DA uptake, post-treatment with DM: LPS 20 ng/ml 12 h then removed.

In the case of `Oc1ccc2c(c1)[C@@]13CCCC[C@H]1[C@@H](C2)NCC3` [3-HM, 3-hydroxymorphinan], the “number of dopaminergic neurons” value in assay [1] (3-HM 5 μM pretreatment, LPS 10 ng/ml, LPS alone reduced by 51%) is given as 97 % of the vehicle-treated control cultures. In assay [1] (3-HM pretreatment, LPS 10 ng/ml, LPS alone 43%), the “average length of dopaminergic neuronal neurites” value is recorded as 110 % of the vehicle-treated control cultures. The “increase of DA uptake capacity vs vehicle-treated control” value in assay [2] (3-HM 1-5 μM alone, 7 days) is 20-60%. Also, the “neurotrophic effect of compound alone in neuron-glia cultures” value in assay [2] was “significant neurotrophic effect”. Further, the “DA uptake with 3-HM-treated astroglia conditioned media” value in assay [3] (3-HM 1 μM, 10 days) came out at 151.3%; in assay [3] (3-HM 2.5 μM, 10 days), 160.9%; in assay [3] (3-HM 5 μM, 10 days), 197.8%. For the same compound, the “DA uptake capacity in neuron-enriched cultures” value in assay [3] (3-HM 0.1-5 μM, 10 days) is on record as “failed to show a significant increase in the DA uptake capacity”. The “DA uptake, neuron-enriched cultures + microglia” value in assay [3] (10% or 20% of microglia added back, 3-HM-treated, 10 days) was “failed to increase DA uptake”. Further, the “capacity of DA uptake, neuron-enriched cultures + astroglia” value worked out at 135.8% in assay [3] (40% of astroglia added back, 3-HM-treated, 10 days) and 158.3% in assay [3] (50% of astroglia added back, 3-HM-treated, 10 days). The “LPS-induced decrease in DA uptake” value in assay [4] (3-HM 5 μM, LPS 10 ng/ml, 7 days) was “almost back to the vehicle-treated control values”.

With `COc1ccc2c(c1)[C@@]13CCCC[C@H]1[C@@H](C2)N(C)CC3` [DM, d-3-methoxy-N-methylmorphinan], the “dendrite network (immunocytochemical analysis)” value in assay [1] (DM 10^−5 M and 10^−14 M) was “more elaborate dendrite network”; in assay [1] (DM 10^−10 M), “failed to show improvement”. Also, the “attenuation of LPS-induced reduction in the number of TH-IR neurons” value in assay [1] (DM 10^−5 M, LPS 10 ng/ml) was determined as 37%; in assay [1] (DM 10^−14 M, LPS 10 ng/ml) it was 28%. Besides, in assay [1] (DM 10^−10 M, LPS 10 ng/ml), the “dopaminergic neuron degeneration (TH-IR neuron number)” value is listed as “no protective effects”. Also, the “neurotrophic effect of compound alone in neuron-glia cultures” value in assay [2] is “not observed”. In addition, in assay [3] (DM 5 μM, vs vehicle-treated conditioned cultures), the “neurotrophic effect of DM-treated astroglia conditioned media” value was “failed to exhibit any neurotrophic effect”. Further, in assay [4] (DM 10^−13 and 10^−14 M, 30 min pretreatment, LPS 10 ng/ml, 7 days), the “LPS-induced decrease in [3H]-dopamine uptake” value is reported as “equipotent neuroprotective effect”. The “DA uptake, post-treatment with DM” value is “showed a protective effect” in assay [4] (DM 10^−5 and 10^−14 M post-treatment); “but not at 10^−10 M” in assay [4] (DM 10^−10 M post-treatment).

Regarding `CCCC(CCC)C(=O)O` [VPA, Valproic acid], the “DA neuron morphology (anti-TH), VPA alone” value in assay [1] (VPA 0.6 mM alone) is “promoted neurite formation and inter-neuronal networks”. Further, the “TH immunostaining in cell bodies and neuronal processes” value in assay [1] (VPA 0.6 mM, alone or with LPS, vs vehicle control) was “enhanced the TH immunostaining”. Further, the “LPS-induced decrease of TH-ir neurons and loss of neuronal process (morphology)” value in assay [1] (VPA 0.2-0.6 mM pretreatment, LPS 20 ng/ml) is listed as “reversed by VPA pretreatment in a dose-dependent manner”. Besides, in assay [1] (VPA 0.2 to 0.6 mM, 48 hours pretreatment, LPS 10 ng/ml, 7 days), the “LPS-induced morphological changes of DA neurons” value is “prevented by VPA pretreatment”. For the same compound, the “LPS-induced loss of TH-ir neurons” value in assay [1] (VPA pretreatment 48 h, significant effect at 0.2, 0.4 and 0.6 mM, LPS 20 ng/ml 72 h) is recorded as “prevented by VPA pretreatment in a concentration-dependent manner”. In addition, the “capacity of [3H]DA uptake vs vehicle-treated control” value in assay [2] (VPA 0.6 mM for 7 days) is reported as “marked increase”. In assay [2] (VPA 0.6 mM for 7 days), the “number of TH-IR neurons vs vehicle-treated control” value is on record as “marked increase”. For the same compound, the “spontaneous DA neuronal death (DA uptake)” value in assay [2] (VPA 0.6 mM, 7 days) is “significantly protected DA neurons from spontaneous neuronal death”. For the same compound, in assay [3] (neuron-enriched cultures, 7 days, drug 0.6 mM or conditioned medium), the “increase in DA uptake” value was “less than 2 fold”. Further, in assay [4] (VPA 0.6 mM alone, no LPS), the “DA uptake levels, VPA alone” value is reported as “did not affect DA uptake levels”. Also, the “neuroprotection against LPS neurotoxicity (DA uptake)” value in assay [4] (VPA 0.6 mM, 6 hours pretreatment, LPS 10 ng/ml) is “failed to induce a significant effect”; in assay [4] (VPA 0.6 mM, 12 hours pretreatment, LPS 10 ng/ml), “complete neuroprotection”; in assay [4] (VPA 0.6 mM, 48 hours pretreatment, LPS 10 ng/ml), “further increase in DA uptake levels”. In assay [4] (VPA 0.6 mM, 48 h pretreatment, LPS 20 ng/ml), the “LPS-induced decrease in DA uptake” value is “completely restored”. In addition, the “DA uptake levels vs untreated control” value in assay [4] (VPA 0.6 mM, alone or with LPS 10 ng/ml) was “significantly higher than those in the untreated control”. Further, the “LPS-induced reduction of DA uptake” value in assay [4] (VPA 0.05-0.6 mM, 48 h pretreatment, LPS 20 ng/ml 3 days) is given as “concentration-dependently prevented”. The “LPS-induced loss of DA uptake capacity” value in assay [4] (VPA various doses, 48 hours pretreatment, LPS 10 ng/ml 5 days) is reported as “robustly blocked”.
